# From US9650616B2, “Methods for increasing grain yield” (University of Florida Research Foundation, Inc., priority 2014, dated 2017)
# Assays:
# [1] = biological target: T1, maize endosperm AGPase, large subunit variant D161G (numbering of SEQ ID NO: 20) (Zea mays, UniProt P55241+Q84PF5, D161G); experiment: Kinetic constants in the absence of 3-PGA, D161G; assay type: biochemical
# T1 sequence (P55241 46-516 D161G): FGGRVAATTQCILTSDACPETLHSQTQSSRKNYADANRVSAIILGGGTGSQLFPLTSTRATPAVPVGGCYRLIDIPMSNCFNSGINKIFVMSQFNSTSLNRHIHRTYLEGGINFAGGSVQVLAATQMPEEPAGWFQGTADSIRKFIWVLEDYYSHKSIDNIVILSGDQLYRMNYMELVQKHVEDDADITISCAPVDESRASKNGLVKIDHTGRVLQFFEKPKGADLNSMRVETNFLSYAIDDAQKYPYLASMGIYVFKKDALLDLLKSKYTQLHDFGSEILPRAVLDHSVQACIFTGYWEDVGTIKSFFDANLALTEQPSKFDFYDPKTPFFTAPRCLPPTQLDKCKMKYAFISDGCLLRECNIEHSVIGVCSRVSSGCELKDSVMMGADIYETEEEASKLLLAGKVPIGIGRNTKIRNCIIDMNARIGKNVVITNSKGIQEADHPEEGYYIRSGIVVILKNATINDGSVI
# T1 sequence (Q84PF5 1-474): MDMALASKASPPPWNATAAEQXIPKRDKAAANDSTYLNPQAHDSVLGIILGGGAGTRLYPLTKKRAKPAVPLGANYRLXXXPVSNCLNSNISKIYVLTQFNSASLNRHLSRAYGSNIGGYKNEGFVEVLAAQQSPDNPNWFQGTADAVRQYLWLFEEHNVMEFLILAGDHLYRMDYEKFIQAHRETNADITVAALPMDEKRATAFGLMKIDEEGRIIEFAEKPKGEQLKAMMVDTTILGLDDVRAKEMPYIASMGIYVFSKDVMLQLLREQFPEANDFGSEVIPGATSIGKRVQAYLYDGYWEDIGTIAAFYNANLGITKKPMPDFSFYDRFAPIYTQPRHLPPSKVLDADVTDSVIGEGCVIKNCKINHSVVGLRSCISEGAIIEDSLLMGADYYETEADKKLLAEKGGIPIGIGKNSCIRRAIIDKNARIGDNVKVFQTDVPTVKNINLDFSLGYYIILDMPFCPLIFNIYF
# Procedure: Reactions were performed for 10 min and terminated by boiling. Blank mixtures contained everything except ATP.
# Based on the kinetic results (Table 10) and catalytic properties at 55° C. (Table 10) both D161G and GGR were selected for a more detailed kinetic analysis. […] The GGR mutant was primarily chosen based on its increased catalytic rate at 37° C. and high performance at 55° C. Its high activity in the absence of 3-PGA was also paramount. The first kinetic parameters determined were the Michaelis constants, the catalytic rate (kcat) and the dissociation constant (Kia) for the E-ATP complex, in the absence of 3-PGA. […] For the wt maize enzyme, this activator primarily responds by reducing the Km for both substrates, with little effect on the reaction rate (Boehlein et al., 2013). […] The kinetic mechanism established ATP as the first substrate to bind, thus the activator is no longer necessary for this first step. […] This variant also conditions both heat stability and high activity in the absence of an activator.
# [2] = biological target: T2, maize endosperm AGPase, evolutionary mutant SH2-E (Zea mays, UniProt P55241+Q84PF5); experiment: Apparent kinetic constants with 3-PGA, 37° C., SH2-E; assay type: biochemical; conditions: read-out: ATP Km
# T2 construct: data of Boehlein et al., 2013
# T2 sequence (P55241 46-516, change not shown, one chain of several): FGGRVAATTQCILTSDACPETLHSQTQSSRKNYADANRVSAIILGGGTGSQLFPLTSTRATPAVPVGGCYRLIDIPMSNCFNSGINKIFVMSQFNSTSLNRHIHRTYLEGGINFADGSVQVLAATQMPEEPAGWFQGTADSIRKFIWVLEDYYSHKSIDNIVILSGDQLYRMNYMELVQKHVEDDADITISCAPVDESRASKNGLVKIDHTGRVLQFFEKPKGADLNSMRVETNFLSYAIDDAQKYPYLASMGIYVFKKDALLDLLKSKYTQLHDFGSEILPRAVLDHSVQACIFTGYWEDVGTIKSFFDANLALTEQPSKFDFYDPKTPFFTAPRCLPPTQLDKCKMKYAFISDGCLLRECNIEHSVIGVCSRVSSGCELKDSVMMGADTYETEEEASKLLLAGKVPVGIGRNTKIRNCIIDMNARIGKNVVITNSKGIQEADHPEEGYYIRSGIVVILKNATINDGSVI
# Procedure: An endpoint assay was used to determine the rate of the AGPase reaction by coupling the formation of PPi to a decrease in NADH concentration (Boehlein et al., 2008). […] The Michaelis constants (Km) were obtained by varying one substrate in the presence of saturating concentrations of the second substrate. The activation constants were obtained by varying the activator at fixed levels of both substrates. All reactions were performed at 37° C. and mixes were prewarmed before starting the reaction with enzyme. […] The absorbance at 340 nm was monitored after 30 min and the amount of PPi produced was determined from a standard curve using PPi in complete reaction mixtures lacking AGPase. Blank samples contained complete reaction mixtures without enzyme and the change in absorbance between the blank and the reaction was used to calculate the amount of PPi produced. […]
# The apparent Michaelis constant and maximum velocity of each reaction was calculated from a V vs. S plots using nonlinear regression analysis and the following equation, v=VmaxS/(Km+S), where v is the measured velocity, Vmax is the maximum velocity, S is the substrate concentration. […]
# Each mutant, comprising 1, 2, 3 or 4 changes, was grown in a large scale culture, expressed and purified according to standard procedures (Boehlein et al., 2005). […] Next, the activation constant, Ka, was determined for each of the mutant enzymes. […]
compound,measurement,setting,value
Nc1ncnc2c1ncn2[C@@H]1O[C@H](COP(=O)(O)OP(=O)(O)OP(=O)(O)O)[C@@H](O)[C@H]1O [ATP],decrease of Km for ATP compared to wild-type,[1],~100 ×
same,kcat,[1]; ATP varied at fixed G-1-P,48.8 s⁻¹
same,Km,[1]; read-out: ATP Km,43 µM
same,Km,[2],100 µM
